# Assay results reported in patent publication US20230011869A1 (Hoffmann-La Roche Inc., priority 2018, published 2023).
# Structures can show the parent of a compound that is named as a salt.
# Test system: Acinetobacter baumannii ATCC17978
# Assay: Antimicrobial susceptibility testing: 90% growth inhibitory concentration (IC90) determination, Iso-Sensitest broth
# Format: cell-based
# Conditions: 90% growth inhibitory concentration, Acinetobacter baumannii ATCC17978, Iso-Sensitest broth, OD 600 nm over 16 h; read-out: ATCC17978 IC90
# In short: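 A. baumannii ATCC17978 grown in Iso-Sensitest broth across 10 compound concentrations at 35±2 °C.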
row,Structure (SMILES),IC90 [nM]
1,"Cc1cc(Nc2nccn3c(-c4ccc(OCC#N)c(F)c4F)cnc23)ccc1C(=O)N1CCC(C(=O)N2CCN[C@H](CO)C2)CC1 [Example 542, 2-[2,3-difluoro-4-[8-[4-[4-[(3S)-3-(hydroxymethyl)piperazine-1-carbonyl]piperidine-1-carbonyl]-3-methylanilino]imidazo[1,2-a]pyrazin-3-yl]phenoxy]acetonitrile; for-mic acid]",98
2,"Cc1cc(Nc2nccn3c(-c4ccc(OCC#N)c(F)c4F)cnc23)ccc1C(=O)N1CCC(C(=O)N2CCN[C@@H](CO)C2)CC1 [Example 543, 2-[2,3-difluoro-4-[8-[4-[4-[(3R)-3-(hydroxymethyl)piperazine-1-carbonyl]piperidine-1-carbonyl]-3-methylanilino]imidazo[1,2-a]pyrazin-3-yl]phenoxy]acetonitrile; for-mic acid]",99
3,"COc1ccc(-c2cnc3c(Nc4ccc(C(=O)N5CCC(C(=O)N6CCN[C@@H](C(=O)O)C6)CC5)c(C)c4)nccn23)cc1F [Example 558, (R)-4-(1-(4-((3-(3-fluoro-4-methoxyphenyl)imidazo[1,2-a]pyrazin-8-yl)amino)-2-methylbenzoyl)piperidine-4-carbonyl)piperazine-2-carboxylic acid hydrochloride]",922
4,"COc1ccc(-c2cnc3c(Nc4ccc(C(=O)N5CCC(C(=O)N6C[C@H](O)[C@@H](O)[C@H](O)[C@H]6CO)CC5)c(C)c4)nccn23)c(F)c1F [Example 566, (1-(4-((3-(2,3-difluoro-4-methoxyphenyl)imidazo[1,2-a]pyrazin-8-yl)amino)-2-methylbenzoyl)piperidin-4-yl)((2R,3R,4R,5S)-3,4,5-trihydroxy-2-(hydroxymethyl)piperidin-1-yl)methanone]",370

# Same assay, conditions: Acinetobacter baumannii, ATCC17978, 16 h, read-out: ATCC17978 IC90, 90% growth inhibitory concentration, Acinetobacter baumannii ATCC17978, Iso-Sensitest broth, OD 600 nm over 16 h
row,Structure (SMILES),IC90 [nM]
1,"CCc1cc(Nc2nccn3c(-c4ccc(OCC#N)c(F)c4F)cnc23)ccc1C(=O)N1CCC(C(=O)N2CCN[C@H](CO)C2)CC1 [Example 541, 2-[4-[8-[3-ethyl-4-[4-[(3S)-3-(hydroxymethyl)piperazine-1-carbonyl]piperidine-1-carbonyl]anilino]imidazo[1,2-a]pyrazin-3-yl]-2,3-difluorophenoxy]acetonitrile; 2,2,2-trifluoroacetic acid]",96
2,"COc1ccc(-c2cnc3c(Nc4ccc(C(=O)N5CCC(C(=O)N6CCN[C@@H](CO)C6)CC5)c(C)c4)nccn23)c(F)c1F [Example 544, [4-[[3-(2,3-difluoro-4-methoxyphenyl)imidazo[1,2-a]pyrazin-8-yl]amino]-2-methylphenyl]-[4-[(3R)-3-(hydroxymethyl)piperazine-1-carbonyl]piperidin-1-yl]methanone; formic acid]",100
3,"Cc1cc(Nc2nccn3c(-c4ccc(OC(F)F)cc4)cnc23)ccc1C(=O)N1CCC(C(=O)NC[C@@H]2CNC(=O)O2)CC1 [Example 548, (R)-1-(4-((3-(4-(difluoromethoxy)phenyl)imidazo [1,2-a]pyrazin-8-yl)amino)-2-methylbenzoyl)-N-((2-oxooxazolidin-5-yl)methyl)piperidine-4-carboxamide]",203
4,"COc1ccc(-c2cnc3c(Nc4ccc(C(=O)N5CCN(C(=O)[C@@H]6C[C@@H](OC(=O)[C@@H](N)[C@@H](C)O)CN6)CC5)c(C)c4)nccn23)c(F)c1F [Example 549, [(3R,5S)-5-[4-[4-[[3-(2,3-difluoro-4-methoxy-phenyl)imidazo[1,2-a]pyrazin-8-yl]amino]-2-methyl-benzoyl]piperazine-1-carbonyl]pyrrolidin-3-yl] (2S,3R)-2-amino-3-hydroxy-butanoate formate]",75
5,"COc1ccc(-c2cnc3c(Nc4ccc(C(=O)N5CCN(C(=O)[C@@H]6C[C@@H](OC(=O)[C@@H](N)CCCNC(=N)N)CN6)CC5)c(C)c4)nccn23)c(F)c1F [Example 550, [(3R,5S)-5-[4-[4-[[3-(2,3-difluoro-4-methoxy-phenyl)imidazo[1,2-a]pyrazin-8-yl]amino]-2-methyl-benzoyl]piperazine-1-carbonyl]pyrrolidin-3-yl] 2-amino-5-guanidino-pentanoate formate]",153
6,"COc1ccc(-c2cnc3c(Nc4ccc(C(=O)N5CCN(C(=O)[C@@H]6C[C@@H](OC(=O)[C@@H]7CCCN7)CN6)CC5)c(C)c4)nccn23)c(F)c1F [Example 551, [(3R,5S)-5-[4-[4-[[3-(2,3-difluoro-4-methoxy-phenyl)imidazo[1,2-a]pyrazin-8-yl]amino]-2-methyl-benzoyl]piperazine-1-carbonyl]pyrrolidin-3-yl] pyrrolidine-2-carboxylate formate]",196
7,"COc1ccc(-c2cnc3c(Nc4ccc(C(=O)N5CCN(C(=O)[C@@H]6C[C@@H](OC(=O)[C@@H](N)C(C)C)CN6)CC5)c(C)c4)nccn23)c(F)c1F [Example 552, [(3R,5S)-5-[4-[4-[[3-(2,3-difluoro-4-methoxy-phenyl)imidazo[1,2-a]pyrazin-8-yl]amino]-2-methyl-benzoyl]piperazine-1-carbonyl]pyrrolidin-3-yl] (2S)-2-amino-3-methyl-butanoate]",186
8,"Cc1cc(Nc2nccn3c(-c4ccc(OC(F)F)cc4)cnc23)ccc1C(=O)N1CCC(C(=O)NC[C@H](O)CN)CC1 [Example 553, (R)-N-(3-amino-2-hydroxypropyl)-1-(4-((3-(4-(difluoromethoxy)phenyl)imidazo [1,2-a]pyrazin-8-yl)amino)-2-methylbenzoyl)piperidine-4-carboxamide formate]",227
9,"Cc1cc(Nc2nccn3c(-c4ccc(OC(F)F)cc4)cnc23)ccc1C(=O)N1CCC(C(=O)NC[C@@H](O)CN)CC1 [Example 554, (S)-N-(3-amino-2-hydroxypropyl)-1-(4-((3-(4-(difluoromethoxy)phenyl)imidazo [1,2-a]pyrazin-8-yl)amino)-2-methylbenzoyl)piperidine-4-carboxamide formate]",344
10,"CCc1cc(Nc2nccn3c(-c4ccc(OC(C)C#N)c(F)c4F)cnc23)ccc1C(=O)N1CCN(CCN(C)C)CC1 (stereo not shown) [Example 557, 2-(4-(8-((4-(4-(2-(dimethylamino)ethyl)piperazine-1-carbonyl)-3-ethylphenyl)amino)imidazo[1,2-a]pyrazin-3-yl)-2,3-difluorophenoxy)propanenitrile]",694
11,"Cc1cc(Nc2nccn3c(-c4ccc(O[C@H](C)C#N)c(F)c4F)cnc23)ccc1C(=O)N1CCN(C(=O)[C@@H]2C[C@@H](O)CN2)CC1 [Example 559, (2R)-2-[2,3-difluoro-4-[8-[4-[4-[(2S,4R)-4-hydroxypyrrolidine-2-carbonyl]piperazine-1-carbonyl]-3-methyl-anilino]imidazo[1,2-a]pyrazin-3-yl]phenoxy]propanenitrile formate]",699
12,"Cc1cc(Nc2nccn3c(-c4ccc(O[C@H](C)C#N)c(F)c4F)cnc23)ccc1C(=O)N1CCN(C(=O)C2(O)CCNCC2)CC1 [Example 560, (2R)-2-[2,3-difluoro-4-[8-[4-[4-(4-hydroxypiperidine-4-carbonyl)piperazine-1-carbonyl]-3-methyl-anilino]imidazo[1,2-a]pyrazin-3-yl]phenoxy]propanenitrile formate]",746
13,"COc1ccc(-c2cnc3c(Nc4ccc(C(=O)N5CCN(C(=O)[C@@H]6C[C@@H](OC(=O)[C@@H](N)CCCCN)CN6)CC5)c(C)c4)nccn23)c(F)c1F [Example 561, [(3R,5S)-5-[4-[4-[[3-(2,3-difluoro-4-methoxy-phenyl)imidazo[1,2-a]pyrazin-8-yl]amino]-2-methyl-benzoyl]piperazine-1-carbonyl]pyrrolidin-3-yl] (2S)-2,6-diaminohexanoate formate]",123
14,"COc1ccc(-c2cnc3c(Nc4ccc(C(=O)N5CCN(C(=O)[C@@H]6C[C@@H](OC(=O)CN)CN6)CC5)c(C)c4)nccn23)c(F)c1F [Example 562, [(3R,5S)-5-[4-[4-[[3-(2,3-difluoro-4-methoxy-phenyl)imidazo[1,2-a]pyrazin-8-yl]amino]-2-methyl-benzoyl]piperazine-1-carbonyl]pyrrolidin-3-yl]2-aminoacetate formate]",112
15,"COc1ccc(-c2cnc3c(Nc4ccc(C(=O)N5CCN(C(=O)[C@@H]6C[C@@H](OC(=O)[C@@H](N)CO)CN6)CC5)c(C)c4)nccn23)c(F)c1F [Example 563, [(3R,5S)-5-[4-[4-[[3-(2,3-difluoro-4-methoxy-phenyl)imidazo[1,2-a]pyrazin-8-yl]amino]-2-methyl-benzoyl]piperazine-1-carbonyl]pyrrolidin-3-yl] (2S)-2-amino-3-hydroxy-propanoate formate]",135
16,"CCC(C#N)Oc1ccc(-c2cnc3c(Nc4ccc(C(=O)N5CCC(CN)CC5)c(C)c4)nccn23)c(F)c1F (stereo not shown) [Example 564, 2-(4-(8-((4-(4-(aminomethyl)piperidine-1-carbonyl)-3-methylphenyl)amino)imidazo [1,2-a]pyrazin-3-yl)-2,3-difluorophenoxy)butanenitrile formate]",969
17,"COc1ccc(-c2cnc3c(Nc4ccc(C(=O)N5CCN(C(=O)[C@@H]6C[C@@H](OC(=O)[C@@H](N)CCC(N)=O)CN6)CC5)c(C)c4)nccn23)c(F)c1F [Example 565, [(3R,5S)-5-[4-[4-[[3-(2,3-difluoro-4-methoxy-phenyl)imidazo[1,2-a]pyrazin-8-yl]amino]-2-methyl-benzoyl]piperazine-1-carbonyl]pyrrolidin-3-yl] (2S)-2,5-diamino-5-oxo-pentanoate formate]",109
18,"Cc1cc(Nc2nccn3c(-c4ccc(O[C@H](C)C#N)c(F)c4F)cnc23)ccc1C(=O)N1CCN(C(=O)[C@@H]2C[C@](C)(O)CN2)CC1 [Example 567, (2R)-2-[2,3-difluoro-4-[8-[4-[4-[(2S,4S)-4-hydroxy-4-methyl-pyrrolidine-2-carbonyl]piperazine-1-carbonyl]-3-methyl-anilino]imidazo[1,2-a]pyrazin-3-yl]phenoxy]propanenitrile formate]",386
